# Patent publication US20040192680A1, “Novel amides that activate soluble guanylate cyclase” (priority 2002, published 2004)
# Biological target: T1, soluble guanylate cyclase (α1 and β1 subunits of guanylate cyclase, expressed in Sf9 cells) (Homo sapiens, UniProt Q02108+Q02153)
# T1 construct: made in house; host or cells: Sf9 insect cells (baculovirus co-infection); high-speed supernatant used unpurified
# T1 sequence (Q02108 1-690): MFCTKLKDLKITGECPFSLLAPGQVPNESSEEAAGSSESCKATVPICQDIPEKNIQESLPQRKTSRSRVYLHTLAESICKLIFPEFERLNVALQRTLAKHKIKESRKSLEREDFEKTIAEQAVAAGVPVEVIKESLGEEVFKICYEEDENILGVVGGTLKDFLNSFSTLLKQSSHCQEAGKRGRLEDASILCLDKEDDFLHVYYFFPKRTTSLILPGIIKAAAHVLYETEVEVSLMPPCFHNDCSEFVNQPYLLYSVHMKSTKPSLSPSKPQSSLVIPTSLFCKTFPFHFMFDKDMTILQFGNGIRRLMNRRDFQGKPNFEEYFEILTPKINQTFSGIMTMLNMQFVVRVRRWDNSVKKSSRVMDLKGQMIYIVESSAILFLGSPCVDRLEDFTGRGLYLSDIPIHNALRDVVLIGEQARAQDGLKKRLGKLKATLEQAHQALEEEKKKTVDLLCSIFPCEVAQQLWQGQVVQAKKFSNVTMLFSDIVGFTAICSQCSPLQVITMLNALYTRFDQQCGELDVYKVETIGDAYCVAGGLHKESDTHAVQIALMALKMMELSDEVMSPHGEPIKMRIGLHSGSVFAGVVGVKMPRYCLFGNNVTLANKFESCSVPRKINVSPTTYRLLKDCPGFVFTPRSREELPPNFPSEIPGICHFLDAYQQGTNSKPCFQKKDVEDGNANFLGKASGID
# T1 sequence (Q02153 1-619): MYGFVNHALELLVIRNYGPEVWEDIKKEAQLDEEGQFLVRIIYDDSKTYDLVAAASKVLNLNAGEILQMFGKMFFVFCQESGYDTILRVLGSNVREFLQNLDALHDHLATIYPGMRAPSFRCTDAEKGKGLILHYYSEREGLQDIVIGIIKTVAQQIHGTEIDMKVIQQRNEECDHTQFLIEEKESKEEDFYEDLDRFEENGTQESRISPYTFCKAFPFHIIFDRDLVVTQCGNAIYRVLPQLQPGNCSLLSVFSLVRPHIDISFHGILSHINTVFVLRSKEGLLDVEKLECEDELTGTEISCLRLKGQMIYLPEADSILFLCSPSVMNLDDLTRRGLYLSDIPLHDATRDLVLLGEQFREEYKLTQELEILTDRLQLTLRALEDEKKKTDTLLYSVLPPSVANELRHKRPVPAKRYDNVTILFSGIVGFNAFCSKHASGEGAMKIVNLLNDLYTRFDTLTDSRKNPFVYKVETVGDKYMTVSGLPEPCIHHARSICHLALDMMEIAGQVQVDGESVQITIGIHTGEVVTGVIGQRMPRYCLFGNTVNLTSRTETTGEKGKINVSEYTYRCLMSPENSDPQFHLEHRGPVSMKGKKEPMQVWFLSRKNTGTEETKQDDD
# Test: Guanylate Cyclase Assay (formation of cyclic GMP from GTP, with and without SNP)
# Assay type: biochemical
# Details: compound at 100 μM without SNP; normalized with the activity of 100 μM YC-1 (without SNP) as 100%
# Procedure: Sf9 cells were cultured in Sf-90011 medium supplemented with 10% (v/v) fetal calf serum at 28° C. to give a count of 6×10^5 cells/ml. The cells were then infected with a mixture of the virus stocks for the α1 and β1 subunits of guanylate cyclase at a multiplicity of infection of 0.1 pfu/cell. The cells were harvested 72 hours after infection and were pelleted by centrifugation. The resulting cell pellets were homogenized with Polytron homogenizer in 3 volumes of 20 mM Tris-HCl (pH 7.6) containing 1 mM EDTA, 5 mM dithiothreitol, 90 mM NaCl, 10% glycerol, and protease inhibitors mix (Roche Molecular Biochemicals). The homogenate was centrifuged at 50,000×g for 60 minutes and the supernatant was aliquotted and stored at −80° C. […]
# Guanylate cyclase activity was measured by the formation of cyclic GMP from GTP in a total volume of 100 μl. […] The solution was centrifuged at 3000 rpm for 15 minutes at room temperature and cyclic GMP in 20 μl of the resulting supernatant was measured according to the protocol of Amersham cyclic GMP enzymeimmunoassay system (purchased from Sigma, catalogue number RPN 226).
# Compounds of the present invention were tested at 100 μM with and without 1 μM sodium nitro prusside (SNP). […] Mean basal efficacy, in Table 1, was expressed as a percentage of 100 μM YC-1 (without SNP). […]
smiles,measurement,value
"CC(O)CCNC(=O)/C=C/c1ccccc1Sc1ccc(Cl)cc1 (stereo not shown) [Example 38, (2E)-3-{2-[(4-chlorophenyl)thio]pheny}-N-(3-hydroxybutyl)acrylamide]","Mean basal efficacy of compound alone at 100 μM, [%]",60%
